Data on 15 compounds can be found in ChEMBL document CHEMBL4665684, “Antibacterial and NF-κB Inhibitory Lumazine Peptides, Aspochalasin, γ-Butyrolactone Derivatives, and Cyclic Peptides from a Hawaiian Aspergillus flavipes” (J Nat Prod, 2020).

One experiment deals with A2780. Nature of the experiment: Antiproliferative activity against human A2780 cells at 40 uM by SRB assay. The format is functional, cell-based. (Sulforhodamine B stains cellular protein and so reports cell mass.)
The test system of experiment [1] is Staphylococcus aureus. Nature of the experiment: Antibacterial activity against Staphylococcus aureus ATCC 43300 in presence of disulfiram. The format is functional.
Experiment [2] relates to Staphylococcus aureus. Nature of the experiment: Antibacterial activity against Staphylococcus aureus ATCC 43300 at 80 ug/ml. The format is functional, organism-based. As to conditions: dose 80.0 µg/ml.
A short description of experiment [3]: Inhibition of TNFalpha-induced NFkappaB activation in HEK293 cells after 6 hrs by luciferase reporter gene assay. The format is cell-based. As to conditions: Homo sapiens, HEK293, 6 h. (A reporter such as luciferase makes a cellular process visible.)
Experiment [4] deals with Staphylococcus aureus. Description: Antibacterial activity against Staphylococcus aureus ATCC 43300. The format is functional.

Values after ≈ are worked out from the molar mass of the structure shown. Active and inactive are the calls of the source. Numbered stars: 1 amine (or outer) side, 2 acyl side, 3 side chain; on linkers, the order of the positions; unused ones are H or OH. Square brackets hold non-standard residues; d marks the D form. Peptide text beside a SMILES is read from it. X2 = CC(C)=CCc1cc([C@H](O)[C@H](N[*:1])C(=O)[*:2])ccc1O; X1 = O=C([C@@H](N[*:1])[C@@H](O)c1ccc(O)cc1)[*:2]

Turning to `Cn1c(=O)c2nc(C(=O)N[C@@H](CCC(N)=O)C(=O)Nc3ccccc3C(=O)O)cnc2n(C)c1=O`, the result with A2780 was inactive.
For the compound `CC(C)[C@@H]1NC(=O)CNC(=O)[C@@H]2CCCN2C(=O)[C@H](Cc2c[nH]c3ccccc23)NC(=O)CNC(=O)[C@H]([C@@H](O)c2ccc(O)cc2)NC(=O)CNC1=O` (cyclo(GVG[X1]GWP)), the outcome with A2780 and in the experiment on Staphylococcus aureus [2] was inactive. Further, in the experiment with Staphylococcus aureus [1], the MIC (commonly the smallest concentration in the dilution series that meets the test's criterion for growth inhibition) worked out at 10 µg/mL. The IC50 (as a rule, the concentration needed to halve the response being measured) in experiment [3] amounted to 10.3 µM.
Take `[C-]#[N+]c1ccccc1NC(=O)[C@H](C)NC(=O)c1cnc2c(n1)c(=O)n(C)c(=O)n2C`: in the experiment on A2780, the outcome was inactive.
Still for that read-out and setting: the value for `COC1=C(c2ccc(O)cc2)[C@@H](Cc2ccc(O)c(CC=C(C)C)c2)OC1=O` was “inactive”.
As for `CC(C)=CCc1cc([C@H](O)[C@@H]2NC(=O)CNC(=O)[C@H](C(C)C)NC(=O)CNC(=O)[C@@H]3CCCN3C(=O)[C@H](Cc3c[nH]c4ccccc34)NC(=O)CNC2=O)ccc1O` (cyclo(GVG[X2]GWP)), the outcome in the experiment on A2780 and in the experiment on Staphylococcus aureus [2] was inactive. For the same compound, the MIC in the experiment with Staphylococcus aureus [1] was 10 µg/mL.
For the compound `O=C(N[C@H](CO)[C@H](O)c1ccc([N+](=O)[O-])cc1)C(Cl)Cl` [CHLORAMPHENICOL], the MIC in the experiment with Staphylococcus aureus [4] worked out at 6.25 µg/mL (≈ 19.3 µM); in the experiment with Staphylococcus aureus [1] it was 2.5 µg/mL.
On to `CC1=C[C@@H]2/C=C(\C)CCC(O)C(O)C(O)CC(=O)[C@]23C(=O)N[C@@H](CC(C)C)[C@@H]3[C@@H]1C` (some centres undefined), for which, in the experiment with A2780, the outcome was inactive. In experiment [3], this compound displayed an IC50 of 3.1 µM.
For the compound `COC1=C(c2ccc(O)cc2)[C@@H](Cc2ccc(O)cc2)OC1=O`, the outcome with A2780 and with Staphylococcus aureus [2] was inactive. Further, the MIC in the experiment with Staphylococcus aureus [1] came out at 10 µg/mL.
In the case of `C[C@H](NC(=O)c1cnc2c(n1)c(=O)n(C)c(=O)n2C)C(=O)Nc1ccccc1C(=O)O`, the result with A2780 was inactive.
For the compound `C[C@H](O)C(=O)[C@@H](C)C/C=C/[C@H]1[C@@H]2O[C@]2(C)[C@@H](C)[C@H]2[C@H](Cc3ccccc3)NC(=O)[C@]21O`, the outcome with A2780 was inactive.
Still for that read-out and setting: then `Cn1c(=O)c2nc(C(=O)N[C@@H](CC[S+](C)[O-])C(=O)Nc3ccccc3C(=O)O)cnc2n(C)c1=O` (some centres undefined), with “inactive”; and `COC(=O)c1ccccc1NC(=O)[C@H](CC[S+](C)[O-])NC(=O)c1cnc2c(n1)c(=O)n(C)c(=O)n2C` (some centres undefined), with “inactive”; and `CC1=C[C@H](/C=C(\C)C[C@@H](O)[C@@H](O)/C=C/C(=O)O)[C@]2(O)C(=O)N[C@@H](CC(C)C)[C@@H]2[C@@H]1C`, with “inactive”.
As to `COC(=O)[C@]1(Cc2ccc(O)c(CC=C(C)C)c2)OC(=O)C(OC)=C1c1ccc(O)cc1`, in the experiment with A2780, the outcome was inactive.
On the same count and under the same terms, then `Cn1c(=O)c2nc(C(=O)N[C@@H](CO)C(=O)Nc3ccccc3C(=O)O)cnc2n(C)c1=O`, with “inactive”.
